Laboratory results from EP4768484A1, “HETEROCYCLIC FUSED RING COMPOUND, AND COMPOSITION AND USE THEREOF” (Shenzhen TargetRx, Inc., priority 2023, dated 2025).

Key:
Assay type in all cases: cell-based
[1] = target: T1, Ba/F3 BCR-ABL1 E255V/T315I (Homo sapiens, UniProt P00519+P11274, E255V/T315I); assay: Cell growth inhibitory activity assay (CellTiter-Glo), Ba/F3 BCR-ABL1 E255V/T315I cells; settings: 72 h, CTG cell viability
T1 construct: BCR (N-terminal fusion partner of the oncoprotein); expressed in transfected cells; host or cells: Ba/F3 (lentiviral transduction, monoclonal line)
Procedure: (§1) In this assay, the Celltiter-Glo (CTG) kit provided by Promega was used, and it is a homogeneous cell viability assay method. The cell viability of cultured cells was measured by quantifying ATP. K562 cells were purchased from Nanjing Kebai, product number CBP60529; Ba/F3 parental cells were purchased from RIKEN BRC, product number RCB0805; other cells containing BCR-ABL1 WT, BCR-ABL1 T315I, BCR-ABL1 T315M, BCR-ABL1 Y253H/E255K, BCR-ABL1 E255V/T3151, BCR-ABL1 A424T, BCR-ABL1 A337V, BCR-ABL1 P465S, BCR-ABL1 V468F, and BCR-ABL1 I502L were all monoclonal engineered cell lines obtained by transducting Ba/F3 parental cells with the lentivirus plasmids containing WT or corresponding mutated BCR-ABL1.
(§2) The steps of cell viability assay are as follows: • a) Cells in logarithmic growth phase were collected. Cell suspension was prepared and the cells were counted. Concentration of the cells was calculated. • b) The cell suspension was diluted to the required concentration and then added to the middle wells of a 96-well plate, and PBS was added to the edge wells. The wells with no cells and only culture medium were used as blank controls. • c) In addition to the cell plate used for compound analysis, another 96-well plate was prepared as a T0 plate, and 3-6 blank wells and 3-6 cell wells were added. The next day, CTG was used to test the cell viability as the T0 viability value of the cells. • d) The cell plate was incubated at 37 °C in a 5% CO2 incubator overnight. • e) The next day, each concentration of a compound subjected to a gradient dilution was added, and the cell plate was incubated at 37 °C in a 5% CO2 incubator for 72 h. The wells with no compound and only 0.5% DMSO were used as positive controls for cell growth. • f) CTG reagent (CellTiter-Glo kit) was added according to the manufacturer's instructions to test the cell viability value. • g) The plate was read using Biotek cytation3.0 microplate reader and the data were exported. • h) IC50 was calculated using GraphPad Prism 7.0 software.
(§3) The IC50 (half-maximal inhibitory concentration) of the compound was obtained using the following nonlinear fitting formula: Y = Bottom + (Top−Bottom)/(1+10^(∧)((LogIC50−X)*HillSlope)) [formula] • X: Log value of the compound concentration • Y: Inhibition rate (% inhibition) • Top: Maximum response • Bottom: Baseline response • HillSlope: Slope of the curve
(§4) The formula for calculating cell inhibition rate (inhibition rate %) was: [formula]

Ba/F3 BCR-ABL1 A424T = target: T2, Ba/F3 BCR-ABL1 A424T (Homo sapiens, UniProt P00519+P11274, A424T); assay: Cell growth inhibitory activity assay (CellTiter-Glo), Ba/F3 BCR-ABL1 A424T cells; settings: 72 h, CTG cell viability
T2 construct: BCR (N-terminal fusion partner of the oncoprotein); expressed in transfected cells; host or cells: Ba/F3 (lentiviral transduction, monoclonal line)
Procedure: as §1, §2, §3, §4

Ba/F3 parental cells = assay: Cell growth inhibitory activity assay (CellTiter-Glo), Ba/F3 parental cells; settings: Mus musculus, BaF3, 72 h, CTG cell viability, read-out: IC50 Ba/F3 BCR-ABL1 Parental
Procedure, shortened: (§5)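 IC50 values come from nonlinear fitting of % inhibition against log concentration, with viability taken as ATP content by CellTiter-Glo. Parental Ba/F3 or Ba/F3 monoclonal lines expressing lentivirally introduced mutant BCR-ABL1 were dosed for 72 h; controls included 0.5% DMSO wells and a T0 plate.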

Ba/F3 BCR-ABL1 WT = target: T3, Ba/F3 BCR-ABL1 WT (Homo sapiens, UniProt P00519+P11274); assay: Cell growth inhibitory activity assay (CellTiter-Glo), Ba/F3 BCR-ABL1 WT cells; settings: 72 h, CTG cell viability
T3 construct: BCR (N-terminal fusion partner of the oncoprotein); expressed in transfected cells; host or cells: Ba/F3 (lentiviral transduction, monoclonal line)
Procedure, shortened: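 Ba/F3 lines stably transduced by lentivirus with WT or mutant BCR-ABL1, alongside untransduced parental Ba/F3, were seeded and incubated overnight at 37 °C, 5% CO2, then exposed to serially diluted compound for 72 h. Viability was read as ATP by CellTiter-Glo luminescence against a day-of-dosing T0 plate; IC50 from four-parameter nonlinear fit.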

Ba/F3 BCR-ABL1 T315M = target: T4, Ba/F3 BCR-ABL1 T315M (Homo sapiens, UniProt P00519+P11274, T315M); assay: Cell growth inhibitory activity assay (CellTiter-Glo), Ba/F3 BCR-ABL1 T315M cells; settings: 72 h, CTG cell viability
T4 construct: BCR (N-terminal fusion partner of the oncoprotein); expressed in transfected cells; host or cells: Ba/F3 (lentiviral transduction, monoclonal line)
Procedure: as §1, §2, §3, §4

K562 cells = assay: Cell growth inhibitory activity assay (CellTiter-Glo), K562 cells; settings: Homo sapiens, 72 h, CTG cell viability
Procedure, shortened: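 K562 cells in logarithmic growth were counted, diluted and plated in 96-well plates, with medium-only blanks and a separate T0 plate read by CTG the following day. After overnight incubation, graded compound concentrations were added for 72 h, with 0.5% DMSO wells as growth controls. Luminescence was read on a Biotek cytation3.0, and IC50 came from nonlinear fitting in GraphPad Prism 7.0.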

Ba/F3 BCR-ABL1 V468F = target: T5, Ba/F3 BCR-ABL1 V468F (Homo sapiens, UniProt P00519+P11274, V468F); assay: Cell growth inhibitory activity assay (CellTiter-Glo), Ba/F3 BCR-ABL1 V468F cells; settings: 72 h, CTG cell viability
T5 construct: BCR (N-terminal fusion partner of the oncoprotein); expressed in transfected cells; host or cells: Ba/F3 (lentiviral transduction, monoclonal line)
Procedure: as §1, §2, §3, §4

Ba/F3 BCR-ABL1 T315I = target: T6, Ba/F3 BCR-ABL1 T315I (Homo sapiens, UniProt P00519+P11274, T315I); assay: Cell growth inhibitory activity assay (CellTiter-Glo), Ba/F3 BCR-ABL1 T315I cells; settings: 72 h, CTG cell viability
T6 construct: BCR (N-terminal fusion partner of the oncoprotein); expressed in transfected cells; host or cells: Ba/F3 (lentiviral transduction, monoclonal line)
Procedure, shortened: as §5

[2] = target: T7, Ba/F3 BCR-ABL1 Y253H/E255K (Homo sapiens, UniProt P00519+P11274, E255K/Y253H); assay: Cell growth inhibitory activity assay (CellTiter-Glo), Ba/F3 BCR-ABL1 Y253H/E255K cells; settings: 72 h, CTG cell viability
T7 construct: BCR (N-terminal fusion partner of the oncoprotein); expressed in transfected cells; host or cells: Ba/F3 (lentiviral transduction, monoclonal line)
Procedure: as §1, §2, §3, §4

Ba/F3 BCR-ABL1 P465S = target: T8, Ba/F3 BCR-ABL1 P465S (Homo sapiens, UniProt P00519+P11274, P465S); assay: Cell growth inhibitory activity assay (CellTiter-Glo), Ba/F3 BCR-ABL1 P465S cells; settings: 72 h, CTG cell viability
T8 construct: BCR (N-terminal fusion partner of the oncoprotein); expressed in transfected cells; host or cells: Ba/F3 (lentiviral transduction, monoclonal line)
Procedure: as §1, §2, §3, §4

Ba/F3 BCR-ABL1 I502L = target: T9, Ba/F3 BCR-ABL1 I502L (Homo sapiens, UniProt P00519+P11274, I502L); assay: Cell growth inhibitory activity assay (CellTiter-Glo), Ba/F3 BCR-ABL1 I502L cells; settings: 72 h, CTG cell viability
T9 construct: BCR (N-terminal fusion partner of the oncoprotein); expressed in transfected cells; host or cells: Ba/F3 (lentiviral transduction, monoclonal line)
Procedure: as §1, §2, §3, §4

Ba/F3 BCR-ABL1 A337V = target: T10, Ba/F3 BCR-ABL1 A337V (Homo sapiens, UniProt P00519+P11274, A337V); assay: Cell growth inhibitory activity assay (CellTiter-Glo), Ba/F3 BCR-ABL1 A337V cells; settings: 72 h, CTG cell viability
T10 construct: BCR (N-terminal fusion partner of the oncoprotein); expressed in transfected cells; host or cells: Ba/F3 (lentiviral transduction, monoclonal line)
Procedure: as §1, §2, §3, §4

| Structure (SMILES) | IC50 [1] [µM] | IC50 (Ba/F3 BCR-ABL1 A424T) [µM] | IC50 (Ba/F3 parental cells) [µM] | IC50 (Ba/F3 BCR-ABL1 WT) [µM] | IC50 (Ba/F3 BCR-ABL1 T315M) [µM] | IC50 (K562 cells) [µM] | IC50 (Ba/F3 BCR-ABL1 V468F) [µM] | IC50 (Ba/F3 BCR-ABL1 T315I) [µM] | IC50 [2] [µM] | IC50 (Ba/F3 BCR-ABL1 P465S) [µM] | IC50 (Ba/F3 BCR-ABL1 I502L) [µM] | IC50 (Ba/F3 BCR-ABL1 A337V) [µM] |
| --- | --- | --- | --- | --- | --- | --- | --- | --- | --- | --- | --- | --- |
| CC(=O)NC1CCC2c3cc(C(=O)Nc4ccc(OC(F)(F)Cl)cc4)cc(-c4cnc5c(c4)C(=O)N(C)C5)c3N(C(C)C)C12 (racemic) [T-11, 3-acetamido-N-(4-(chlorodifluoromethoxy)phenyl)-4-isopropyl-5-(6-methyl-5-oxo-6,7-dihydro-5H-pyrrolo[3,4-b]pyridin-3-yl)-1,2,3,3a,4,8b-hexahydrocyclopenta[b]indole-7-carboxamide] | 0.05 to 1 | 0.05 to 1 | > 1 | ≤ 0.005 | > 1 | ≤ 0.005 | > 1 | 0.05 to 1 | 0.05 to 1 | – | – | – |
| CC(C)n1cnc2cc(C(=O)Nc3ccc(OC(F)(F)Cl)cc3)cc(-c3cnc4c(c3)C(=O)N(C)C4)c21 [T-2, N-(4-(chlorodifluoromethoxy)phenyl)-1-isopropyl-7-(6-methyl-5-oxo-6,7-dihydro-5H-pyrrolo[3,4-b]pyridin-3-yl)-1H-benzo[d]imidazole-5-carboxamide] | 0.005 to 0.05 | 0.05 to 1 | > 1 | ≤ 0.005 | – | ≤ 0.005 | 0.05 to 1 | 0.005 to 0.05 | – | 0.05 to 1 | 0.05 to 1 | 0.05 to 1 |
| C[C@@H]1COCc2nc3cc(C(=O)Nc4ccc(OC(F)(F)Cl)cc4)cc(-c4cnc5c(c4)-c4n[nH]cc4C5)c3n21 [T-3, (R)-N-(4-(chlorodifluoromethoxy)phenyl)-6-(2,4-dihydropyrazolo[3',4':3,4]cyclopenta[1,2-b]pyridin-7-yl)-4-methyl-3,4-dihydro-1H-benzo[4,5]imidazo[2,1-c][1,4]oxazine-8-carboxamide] | ≤ 0.005 | 0.005 to 0.05 | > 1 | ≤ 0.005 | 0.05 to 1 | ≤ 0.005 | 0.005 to 0.05 | ≤ 0.005 | ≤ 0.005 | 0.005 to 0.05 | 0.005 to 0.05 | 0.005 to 0.05 |
| C[C@@H]1COCc2nc3cc(C(=O)Nc4ccc(OC(F)(F)Cl)cc4)cc(-c4cnc5c(c4)-c4nn(-c6ccccn6)cc4C5)c3n21 [T-4] | 0.005 to 0.05 | 0.005 to 0.05 | > 1 | ≤ 0.005 | > 1 | ≤ 0.005 | 0.05 to 1 | ≤ 0.005 | ≤ 0.005 | 0.05 to 1 | 0.005 to 0.05 | 0.05 to 1 |
| CN1Cc2ncc(-c3cc(C(=O)Nc4ccc(OC(F)(F)Cl)cc4)cc4c3C(C)(C)C(=O)N4)cc2C1=O [T-7, N-(4-(chlorodifluoromethoxy)phenyl)-3,3-dimethyl-4-(6-methyl-5-oxo-6,7-dihydro-5H-pyrrolo[3,4-b]pyridin-3-yl)-2-oxoindoline-6-carboxamide] | 0.005 to 0.05 | > 1 | > 1 | ≤ 0.005 | – | ≤ 0.005 | 0.05 to 1 | 0.005 to 0.05 | – | > 1 | 0.05 to 1 | > 1 |
